From DBAASP come the findings set out here.

Structures are written as SMILES. ≈ marks a conversion by molar mass, not a printed value.

Common to all, as to test: ≥ marks a high value that may be exact or a test limit, other limits are often not marked, values filed in µg/mL are converted to µM
Test [1] has as its system Acinetobacter baumannii LMG 01041.
Test [2] deals with Candida albicans.
The test system of test [3] is Candida parapsilosis ATCC 22019.
Test [4] has as its system Enterococcus faecalis ATCC 29212.
Test [5] concerns Escherichia coli ATCC 25922.
For test [6], the system named is Escherichia coli LMG 15862.
In test [7] the test system is Escherichia coli UB1005.
The test system of test [8] is Klebsiella aerogenes LMG 02094.
The subject of test [9] is Klebsiella pneumoniae LMG 20218.
Test [10] concerns Malassezia furfur KCTC 7744.
Test [11] concerns Mycobacterium tuberculosis H37Rv.
Test [12] has as its system Pseudomonas aeruginosa ATCC 9027.
In test [13] the test system is Pseudomonas aeruginosa H103.
Test [14] concerns Pseudomonas aeruginosa LMG 6395.
Test [15] relates to Pseudomonas aeruginosa PAO1 H103.
Test [16] has as its system Salmonella enterica serovar Typhimurium.
The subject of test [17] is Staphylococcus aureus ATCC 25923.
Test [18] relates to Staphylococcus aureus ATCC 29213.
Test [19] deals with Staphylococcus aureus USA 100.
Test [20] concerns Staphylococcus aureus USA 300.
In test [21] the test system is Staphylococcus epidermidis.
Test [22] deals with Trichosporon beigelii KCTC 7707.
For test [23], the system named is Bacillus subtilis KCCM 11495.
The test system of test [24] is Escherichia coli KCCM 11569.

Usually MIC stands for the lowest concentration that inhibits growth of the organism. Turning to `CC[C@H](C)[C@H](NC(=O)[C@@H](NC(=O)[C@H](Cc1c[nH]c2ccccc12)NC(=O)[C@@H](NC(=O)[C@@H](N)CCCN=C(N)N)[C@@H](C)CC)C(C)C)C(=O)N[C@@H](Cc1c[nH]c2ccccc12)C(=O)N[C@@H](CCCN=C(N)N)C(=O)N[C@@H](CCCN=C(N)N)C(N)=O` [RIWVIWRR], the MIC in test [1] was found to be 2 µM (≈ 2.37 µg/mL); in [2], 6.75 µM (≈ 7.99 µg/mL); in test [3], 12.5 µM (≈ 14.8 µg/mL); in [4], 1.69 µM (≈ 2 µg/mL); in [5] it was 3.38 µM (≈ 4 µg/mL); in [6], 3 µM (≈ 3.55 µg/mL). In addition, the MIC came to 1.69 µM (≈ 2 µg/mL) in [7]; 5 µM (≈ 5.92 µg/mL) in [8]; 6 µM (≈ 7.1 µg/mL) in test [9]; 25 µM (≈ 29.6 µg/mL) in test [10]; 2.2 µM (≈ 2.6 µg/mL) in test [11]; 12.5 µM (≈ 14.8 µg/mL) in test [12]. The MIC in test [13] worked out at 6.75 µM (≈ 7.99 µg/mL); in [14], 3 µM (≈ 3.55 µg/mL); in test [15] it was 3.38 µM (≈ 4 µg/mL); in test [16] it was 6.75 µM (≈ 7.99 µg/mL); in [17] it was 1.69 µM (≈ 2 µg/mL); in test [18] it was 6.75 µM (≈ 7.99 µg/mL). Further, the MIC was found to be 6.25 µM (≈ 7.4 µg/mL) in test [19], 6.25 µM (≈ 7.4 µg/mL) in [20], 1.69 µM (≈ 2 µg/mL) in test [21] and 12.5 µM (≈ 14.8 µg/mL) in test [22].

As to `CC(C)C[C@H](NC(=O)CNC(=O)[C@H](Cc1cnc[nH]1)NC(=O)[C@H](Cc1cnc[nH]1)NC(=O)[C@H](CC(C)C)NC(=O)[C@H](CC(C)C)NC(=O)[C@H](C)NC(=O)[C@H](CC(N)=O)NC(=O)[C@H](CC(C)C)NC(=O)[C@@H](N)Cc1c[nH]c2ccccc12)C(=O)N[C@@H](CC(N)=O)C(=O)N[C@@H](CS)C(=O)N[C@@H](C)C(=O)N[C@@H](CCCCN)C(=O)NCC(=O)N[C@H](C(N)=O)C(C)C` [WLNALLHHGLNCAKGV], the MIC is 6.48 µM (≈ 11.3 µg/mL) in [23] and 25.9 µM (≈ 45.2 µg/mL) in test [24].
